{"source": "paper PMC10036551", "about": "“Genome mining unveils a class of ribosomal peptides with two amino termini” (Nature Communications, 2023)", "assay_type": "physicochemical", "description": "The HPLC-purified products were analyzed by high-resolution mass spectrometry and tandem mass spectrometry (HR-MS/MS). […] Considering the predicted functions of genes encoded by the mpa BGC, we proposed that Thr underwent conversion to Dmp. To evaluate this hypothesis, a sufficient amount of 1 was accumulated for structure determination, due to its higher post-purification yield than 2 and 3. […] NMR analyses (^1H, ^13C, ^1H-^1H COSY, ^1H-^13C HSQC and ^1H-^13C HMBC) were then conducted in HFIP-d2 and a substructure corresponding to Dmp was deduced.", "note": "Residues, ends and D or L forms follow the SMILES beside them. *: point of attachment. X1 = C[C@@H](CN*)N(C)C"}
{"smiles": "CC[C@H](C)[C@H](NC(=O)CNC(=O)[C@@H](NC(=O)[C@H](CC(C)C)NC(=O)[C@@H](NC(=O)[C@H](CC(C)C)NC(=O)[C@H](C)NC(=O)CNC(=O)[C@@H](NC(=O)[C@@H](NC(=O)CNC(=O)[C@H](CCC(N)=O)NC(=O)[C@H](Cc1ccc(O)cc1)NC(=O)[C@H](Cc1ccccc1)NC(=O)[C@H](CO)NC(=O)[C@H](CC(=O)O)NC(=O)[C@H](Cc1c[nH]c2ccccc12)NC(=O)[C@@H](N)CO)C(C)C)[C@@H](C)CC)C(C)C)[C@@H](C)CC)C(=O)NCC(=O)N[C@@H](C)C(=O)N[C@@H](C)C(=O)N[C@@H](C)C(=O)N[C@@H](C)C(=O)NC[C@H](C)N(C)C", "note": "[compound 1] (H-SWDSFYQGVIGALVLIGIGAAAA-X1)", "values": [{"measurement": "solubility in commonly used NMR solvents", "result": "only sparingly soluble"}, {"measurement": "solubility in hexafluoroisopropanol (HFIP)", "result": "highly soluble"}]}
